We go through 4 molecules from PubChem BioAssay AID1259411 (Chemical Carcinogenesis Research Information System (CCRIS), 2018).

Activity calls are given as the source filed them. The rule behind the calls is not given here.

In this series the test system is rodent carcinogenicity bioassays, tumor incidence. The experiment in a line: CCRIS carcinogenicity studies. The essentials: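 NCI-built, expert-reviewed records of carcinogenicity and related test outcomes (mutagenicity, tumor promotion/inhibition) compiled from published and report sources, historical span 1985-2011, not updated.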

Consider `CCN(CC)C(=O)/C(Cl)=C(\C)OP(=O)(OC)OC`, for which the carcinogen call reads like this: (Species: MOUSE, Strain/Sex: B6C3F1/FEMALE, Route: ORAL, Dose: 0, 80, 160 PPM IN DIET, Dose: 0, 80, 160 PPM IN DIET) “inactive; negative”; (Species: MOUSE, Strain/Sex: B6C3F1/MALE, Route: ORAL, Dose: 0, 80, 160 PPM IN DIET, Dose: 0, 80, 160 PPM IN DIET) “inactive; negative”; (Species: RAT, Strain/Sex: OSBORNE-MENDEL/FEMALE, Route: ORAL, Dose: 0, 80, 160 PPM IN DIET FOR 80 WK (STUDY DURATION: 111 WK), Dose: 0, 80, 160 PPM IN DIET FOR 80 WK (STUDY DURATION: 111 WK), Tumor Site: Type of Lesion: THYROID GLAND: C-CELL ADENOMA OR CARCINOMA) “equivocal”; (Species: RAT, Strain/Sex: OSBORNE-MENDEL/MALE, Route: ORAL, Dose: 0, 80, 160 PPM IN DIET FOR 80 WK (STUDY DURATION: 111 WK), Dose: 0, 80, 160 PPM IN DIET FOR 80 WK (STUDY DURATION: 111 WK), Tumor Site: Type of Lesion: SPLEEN: HEMANGIOMA OR HEMANGIOSARCOMA) “equivocal”.
For `O=P1(N(CCCl)CCCl)NCCCO1` (configuration not stated), the carcinogen call (Species: FISH, Strain/Sex: SHASTA RAINBOW TROUT/MALE, FEMALE, Route: ORAL, Dose: 0, 200 PPM IN DIET FOR 18 MO (STUDY DURATION: 18 MO)) was “inactive; negative”; the carcinogen call (Species: HUMAN, Route: ORAL, Tumor Site: Type of Lesion: URINARY BLADDER) was “active; positive”; the carcinogen call (Species: MOUSE, Strain/Sex: NMRI/FEMALE, Route: SUBCUTANEOUS, Dose: 0, 13, 26 MG/KG IN SALINE 1/WK FOR LIFETIME (STUDY DURATION: LIFETIME), Dose: 0, 13, 26 MG/KG IN SALINE 1/WK FOR LIFETIME (STUDY DURATION: LIFETIME), Tumor Site: Type of Lesion: LYMPHATIC SYSTEM: MALIGNANT LEUKEMIA) was “active; positive”; the carcinogen call (Species: MOUSE, Strain/Sex: NMRI/FEMALE, Route: SUBCUTANEOUS, Dose: 26 MG/KG 1/WK FOR 52 WK, Tumor Site: Type of Lesion: MAMMARY GLAND: CARCINOMA, MULTIPLE SITES: CARCINOMA, SARCOMA) was “active; positive”; the carcinogen call (Species: RAT, Strain/Sex: BR46/MALE, Route: INTRAVENOUS, Dose: 15 MG/KG 1/WK OR 5 DOSES OF 33 MG/KG EVERY 2 WK, Tumor Site: Type of Lesion: MULTIPLE SITES) is “active; positive”; the carcinogen call (Species: RAT, Strain/Sex: SPRAGUE-DAWLEY/MALE,FEMALE, Route: ORAL, Dose: 0.31, 0.63, 1.25, 2.5 MG/KG 5/WK, Dose: 0.31, 0.63, 1.25, 2.5 MG/KG 5/WK, Tumor Site: Type of Lesion: URINARY BLADDER: PAPILLOMA, TRANSITIONAL CELL CARCINOMA) is “active; positive”. Under “Species: RAT, Strain/Sex: SPRAGUE-DAWLEY/MALE, Route: INTRAVENOUS, Dose: 13 MG/KG 1/WK, Tumor Site: Type of Lesion: MULTIPLE SITES”, the carcinogen call is “active; positive”.
With `O=CCC=O`, the carcinogen call (Species: MOUSE, Strain/Sex: B6C3F1/FEMALE, Route: GAVAGE, Dose: 0, 60, 120 MG/KG IN DISTILLED WATER 5D/WK FOR 102 WK (STUDY DURATION: 105 WK), Dose: 0, 60, 120 MG/KG IN DISTILLED WATER 5D/WK FOR 102 WK (STUDY DURATION: 105 WK)) was “inactive; negative”; the carcinogen call (Species: MOUSE, Strain/Sex: B6C3F1/FEMALE, Route: INTRAPERITONEAL, Dose: 0, 1500 NMOL TOTAL DOSE, 1/3 AND 2/3 OF THE TOTAL DOSE ADMINISTERED AT 8 AND 15 DAYS OF AGE RESPECTIVELY, ANIMALS TERMIN) is “inactive; negative”; the carcinogen call (Species: MOUSE, Strain/Sex: B6C3F1/FEMALE, Route: INTRAPERITONEAL, Dose: 0, 3000 NMOL TOTAL DOSE, 1/3 AND 2/3 OF THE TOTAL DOSE ADMINISTERED AT 8 AND 15 DAYS OF AGE RESPECTIVELY, ANIMALS TERMIN) is “inactive; negative”; the carcinogen call (Species: MOUSE, Strain/Sex: B6C3F1/MALE, Route: GAVAGE, Dose: 0, 60, 120 MG/KG IN DISTILLED WATER 5D/WK FOR 102 WK (STUDY DURATION: 104 WK), Dose: 0, 60, 120 MG/KG IN DISTILLED WATER 5D/WK FOR 102 WK (STUDY DURATION: 104 WK)) was “inactive; negative”; the carcinogen call (Species: MOUSE, Strain/Sex: B6C3F1/MALE, Route: INTRAPERITONEAL, Dose: 0, 1500 NMOL TOTAL DOSE, 1/3 AND 2/3 OF THE TOTAL DOSE ADMINISTERED AT 8 AND 15 DAYS OF AGE RESPECTIVELY, ANIMALS TERMIN) was “inactive; negative”; the carcinogen call (Species: MOUSE, Strain/Sex: B6C3F1/MALE, Route: INTRAPERITONEAL, Dose: 0, 3000 NMOL TOTAL DOSE, 1/3 AND 2/3 OF THE TOTAL DOSE ADMINISTERED AT 8 AND 15 DAYS OF AGE RESPECTIVELY, ANIMALS TERMIN) is “inactive; negative”. The carcinogen call was “active; positive” (Species: RAT, Strain/Sex: F344/FEMALE, Route: GAVAGE, Dose: 0, 50, 100 MG/KG IN DISTILLED WATER 5D/WK FOR 102 WK (STUDY DURATION: 105 WK), Dose: 0, 50, 100 MG/KG IN DISTILLED WATER 5D/WK FOR 102 WK (STUDY DURATION: 105 WK), Tumor Site: Type of Lesion: THYROID GLAND: FOLLICULAR CELL ADENOMA, THYROID GLAND: FOLLICULAR CELL ADENOMA OR CARCINOMA) and “active; positive” (Species: RAT, Strain/Sex: F344/MALE, Route: GAVAGE, Dose: 0, 50, 100 MG/KG IN DISTILLED WATER 5D/WK FOR 102 WK (STUDY DURATION: 104 WK), Dose: 0, 50, 100 MG/KG IN DISTILLED WATER 5D/WK FOR 102 WK (STUDY DURATION: 104 WK), Tumor Site: Type of Lesion: THYROID GLAND: FOLLICULAR CELL ADENOMA OR CARCINOMA, PANCREATIC ISLETS: ISLET CELL ADENOMA, PANCREATIC ISLETS: ISLET CEL, Tumor Site: Type of Lesion: THYROID GLAND: FOLLICULAR CELL ADENOMA OR CARCINOMA, PANCREATIC ISLETS: ISLET CELL ADENOMA, PANCREATIC ISLETS: ISLET CEL).
Turning to `CN(C)C(=S)SSC(=S)N(C)C`, the carcinogen call reads like this: (Species: DOG, Strain/Sex: BEAGLE/FEMALE, Route: ORAL, Dose: 0, 0.4, 4, 40 MG/KG/D ADMINISTERED IN GELATIN CAPSULES 7 D/WK FOR 104 WK (STUDY DURATION: 104 WK), Dose: 0, 0.4, 4, 40 MG/KG/D ADMINISTERED IN GELATIN CAPSULES 7 D/WK FOR 104 WK (STUDY DURATION: 104 WK)) “inactive; negative”; (Species: DOG, Strain/Sex: BEAGLE/MALE, Route: ORAL, Dose: 0, 0.4, 4, 40 MG/KG/D ADMINISTERED IN GELATIN CAPSULES 7 D/WK FOR 104 WK (STUDY DURATION: 104 WK), Dose: 0, 0.4, 4, 40 MG/KG/D ADMINISTERED IN GELATIN CAPSULES 7 D/WK FOR 104 WK (STUDY DURATION: 104 WK)) “inactive; negative”; (Species: MOUSE, Strain/Sex: SWISS/FEMALE, Route: DERMAL, Dose: 0, 100 MG/KG BW IN 100 µL DMSO 3/WK FOR 52 WK (STUDY DURATION: 52 WK)) “inactive; negative”; (Species: MOUSE, Strain/Sex: SWISS/MALE, Route: 0, 100 MG/KG BW IN 100 µL DMSO 3/WK FOR 52 WK (STUDY DURATION: 52 WK)) “inactive; negative”; (Species: RAT, Strain/Sex: F344/FEMALE, Route: ORAL, Dose: 0, 0.05, 0.1% IN DIET FOR 104 WK (STUDY DURATION: 112 WK), Dose: 0, 0.05, 0.1% IN DIET FOR 104 WK (STUDY DURATION: 112 WK)) “inactive; negative”; (Species: RAT, Strain/Sex: F344/MALE, Route: ORAL, Dose: 0, 0.05, 0.1% IN DIET FOR 104 WK (STUDY DURATION: 112 WK), Dose: 0, 0.05, 0.1% IN DIET FOR 104 WK (STUDY DURATION: 112 WK)) “inactive; negative”. The carcinogen call reads like this: (Species: RAT, Strain/Sex: WISTAR/FEMALE, Route: ORAL, Dose: 0, 3, 30, 300 PPM IN DIET FOR 104 WK (STUDY DURATION: 104 WK), Dose: 0, 3, 30, 300 PPM IN DIET FOR 104 WK (STUDY DURATION: 104 WK)) “inactive; negative”; (Species: RAT, Strain/Sex: WISTAR/MALE, Route: ORAL, Dose: 0, 3, 30, 300 PPM IN DIET FOR 104 WK (STUDY DURATION: 104 WK), Dose: 0, 3, 30, 300 PPM IN DIET FOR 104 WK (STUDY DURATION: 104 WK)) “inactive; negative”.
